# Assay results published in ChEMBL document CHEMBL5233217, “Modification of 7-piperazinylquinolone antibacterials to promising anticancer lead compounds: Synthesis and in vitro studies” (Eur J Med Chem, 2020).
# How the values were obtained:
# PANC-1 [1] = assay: Antiproliferative activity against human PANC-1 cells assessed as reduction in cell viability incubated for 24 to 72 hrs by MTT assay; type: functional, cell-based
# CAPAN-1 [2] = assay: Antiproliferative activity against human CAPAN-1 cells assessed as reduction in cell viability incubated for 24 to 72 hrs by MTT assay; type: functional, cell-based
# L1210 [3] = assay: Antiproliferative activity against mouse L1210 cells assessed as reduction in cell viability incubated for 48 hrs by MTT assay; type: functional, cell-based; settings: L1210, 48 h
# HL-60 [4] = assay: Antiproliferative activity against human HL-60 cells assessed as reduction in cell viability incubated for 48 hrs by MTT assay; type: functional, cell-based; settings: HL-60, 48 h
# SMMC-7721 [5] = assay: Antiproliferative activity against human SMMC-7721 cells assessed as reduction in cell viability incubated for 24 hrs by MTT assay; type: functional, cell-based; settings: SMMC-7721, 24 h
# MCF7 [6] = assay: Antiproliferative activity against human MCF7 cells assessed as reduction in cell viability incubated for 24 hrs by MTT assay; type: functional, cell-based; settings: MCF7, 24 h
# HCT-8 [7] = assay: Antiproliferative activity against human HCT-8 cells assessed as reduction in cell viability incubated for 24 hrs by MTT assay; type: functional, cell-based; settings: HCT-8, 24 h
# SiHa = assay: Antiproliferative activity against human SiHa cells assessed as cell growth inhibition incubated for 48 hrs by sulforhodamine B assay; type: functional
# PANC-1 [8] = assay: Antiproliferative activity against human PANC-1 cells assessed as cell growth inhibition incubated for 48 hrs by sulforhodamine B assay; type: functional
# LOX IMVI = assay: Anticancer activity against human LOX IMVI cells assessed as cell growth inhibition by sulforhodamine B assay; type: functional
# SK-MEL-2 = assay: Anticancer activity against human SK-MEL-2 cells assessed as cell growth inhibition by sulforhodamine B assay; type: functional
# SK-MEL-5 = assay: Anticancer activity against human SK-MEL-5 cells assessed as cell growth inhibition by sulforhodamine B assay; type: functional
# UACC-257 = assay: Anticancer activity against human UACC-257 cells assessed as cell growth inhibition by sulforhodamine B assay; type: functional
# HOP-92 = assay: Anticancer activity against human HOP-92 cells assessed as cell growth inhibition by sulforhodamine B assay; type: functional
# SMMC-7721 [9] = assay: Antitumor activity against human SMMC-7721 cells assessed as reduction in cell viability by MTT assay; type: functional, cell-based
# L1210 [10] = assay: Antitumor activity against mouse L1210 cells assessed as reduction in cell viability by MTT assay; type: functional, cell-based
# HL-60 [11] = assay: Antitumor activity against human HL-60 cells assessed as reduction in cell viability by MTT assay; type: functional, cell-based
# Hep 3B2 [12] = assay: Antitumor activity against human Hep3B cells assessed as reduction in cell viability by MTT assay; type: functional, cell-based
# CAPAN-1 [13] = assay: Antitumor activity against human CAPAN-1 cells assessed as reduction in cell viability by MTT assay; type: functional, cell-based
# L1210 [14] = assay: Anticancer activity against mouse L1210 cells assessed as reduction in cell viability by MTT assay; type: functional, cell-based
# Hep 3B2 [15] = assay: Antiproliferative activity against human Hep3B cells assessed as reduction in cell viability incubated for 48 hrs by MTT assay; type: functional, cell-based
# SMMC-7721 [16] = assay: Antiproliferative activity against human SMMC-7721 cells assessed as reduction in cell viability incubated for 48 hrs by MTT assay; type: functional, cell-based; settings: SMMC-7721, 48 h
# MCF7 [17] = assay: Antiproliferative activity against human MCF7 cells assessed as reduction in cell viability incubated for 48 hrs by MTT assay; type: functional, cell-based; settings: MCF7, 48 h
# HCT-8 [18] = assay: Antiproliferative activity against human HCT-8 cells assessed as reduction in cell viability incubated for 48 hrs by MTT assay; type: functional, cell-based; settings: HCT-8, 48 h
# [19] = Cytotoxicity against mouse BMSC cells assessed as reduction in cell viability incubated for 48 hrs by MTT assay; type: toxicity, cell-based
# Hep 3B2 [20] = assay: Antiproliferative activity against human Hep3B cells assessed as reduction in cell viability; type: functional, cell-based
# [21] = Cytotoxicity against Chinese hamster CHO cells assessed as reduction in cell viability by MTT assay; type: toxicity, cell-based, Cricetulus griseus
# HL-60 [22] = assay: Cytotoxicity against human HL-60 cells assessed as reduction in cell viability by MTT assay; type: functional, cell-based
# SMMC-7721 [23] = assay: Antiproliferative activity against human SMMC-7721 cells assessed as reduction in cell viability; type: functional, cell-based
# L1210 [24] = assay: Antiproliferative activity against mouse L1210 cells assessed as reduction in cell viability; type: functional, cell-based
# HL-60 [25] = assay: Antiproliferative activity against human HL-60 cells assessed as reduction in cell viability; type: functional, cell-based
# CAPAN-1 [26] = assay: Antiproliferative activity against human CAPAN-1 cells assessed as reduction in cell viability; type: functional, cell-based
compound,measurement,setting,value
CN1CCN(c2cc3c(cc2F)c(=O)c(/C=C2\CN(C4CC4)c4cc(N5CCNCC5)c(F)cc4C2=O)cn3C2CC2)CC1,IC50,PANC-1 [1],3.1 µM
same,IC50,CAPAN-1 [2],1.6 µM
O=c1c(-c2nn3c(-c4cn(C5CC5)c5cc(N6CCNCC6)c(F)cc5c4=O)nnc3s2)cn(C2CC2)c2cc(N3CCNCC3)c(F)cc12,IC50,L1210 [3],3.6 µM
same,IC50,HL-60 [4],0.54 µM
O=C(N/N=C/c1ccc2c(c1)OCO2)c1cn(C2CC2)c2cc(N3CCNCC3)c(F)cc2c1=O,IC50,SMMC-7721 [5],2.9 µM
same,IC50,MCF7 [6],2.9 µM
same,IC50,HCT-8 [7],2.9 µM
O=C(O)c1cn(C2CC2)c2cc(N3CCN(C(=O)CCSc4nnnn4-c4ccc(Br)cc4)CC3)c(F)cc2c1=O,GI50,SiHa,0.06 µM
same,GI50,PANC-1 [8],0.06 µM
COc1ncnc(NS(=O)(=O)c2ccc(/N=C3\C(=O)N(CN4CCN(c5c(F)cc6c(=O)c(C(=O)O)cn(C7CC7)c6c5OC)CC4C)c4ccc(Br)cc43)cc2)c1OC (stereo unspecified),GI50,LOX IMVI,< 10 µM
same,GI50,SK-MEL-2,< 10 µM
same,GI50,SK-MEL-5,< 10 µM
same,GI50,UACC-257,< 10 µM
same,GI50,HOP-92,0.176 µM
COc1ccc(-c2csc3nc(-c4cn5c6c(c(N7CCN(C)CC7)c(F)cc6c4=O)OCC5C)nn23)cc1 (stereo unspecified),IC50,SMMC-7721 [9],26.7 µM
same,IC50,L1210 [10],26.7 µM
same,IC50,HL-60 [11],26.7 µM
same,IC50,Hep 3B2 [12],26.7 µM
same,IC50,CAPAN-1 [13],26.7 µM
O=c1c(-c2nnc3n2N=C(c2ccc(O)c(O)c2)CS3)cn(C2CC2)c2cc(N3CCNCC3)c(F)cc12,IC50,L1210 [14],1.4 µM
C[C@H]1COc2c(N3CCN(C)CC3)c(F)cc3c(=O)c(-c4nn5c(-c6cn(C7CC7)c7cc(N8CCNCC8)c(F)cc7c6=O)nnc5s4)cn1c23,IC50,L1210 [3],1.5 µM
CCn1cc(C(=O)O)c(=O)c2cnc(N3CCN(C(=O)CCSc4nnnn4Cc4ccccc4)CC3)nc21,GI50,SiHa,0.06 µM
same,GI50,PANC-1 [8],0.06 µM
COc1cc(/C=N/NC(=O)c2cn3c4c(c(N5CCN(C)CC5)c(F)cc4c2=O)OC[C@@H]3C)cc(OC)c1OC,IC50,Hep 3B2 [15],2.21 µM
same,IC50,SMMC-7721 [16],2.21 µM
same,IC50,MCF7 [17],2.21 µM
same,IC50,HCT-8 [18],2.21 µM
same,IC50 at 48 h,[19],7.46 µM
CCn1cc(-c2nn(CNc3ccc(Cl)cc3)c(=S)o2)c(=O)c2cc(F)c(N3CCN(C)CC3)cc21,IC50,Hep 3B2 [20],45.4 µM
C[C@H]1COc2c(N3CCN(C)CC3)c(F)cc3c(=O)c(-c4nnc(S)o4)cn1c23,IC50,[21],> 50 µM
same,IC50,HL-60 [22],> 50 µM
same,IC50,SMMC-7721 [5],> 50 µM
CCn1cc(C(=O)O)c(=O)c2cnc(N3CCN(C(=O)CCSc4nnnn4-c4ccc(Br)cc4)CC3)nc21,GI50,SiHa,0.06 µM
same,GI50,PANC-1 [8],0.06 µM
CCn1cc(-c2nnc(SCc3nnc(-c4ccc(F)cc4)o3)[nH]2)c(=O)c2cc(F)c(N3CCN(C)CC3)cc21,IC50,SMMC-7721 [23],3.8 µM
same,IC50,L1210 [24],3.8 µM
same,IC50,HL-60 [25],3.8 µM
same,IC50,Hep 3B2 [20],3.8 µM
same,IC50,CAPAN-1 [26],3.8 µM
CCn1cc(-c2nnc(SCc3nnc(-c4ccccc4OC)o3)[nH]2)c(=O)c2cc(F)c(N3CCN(C)CC3)cc21,IC50,SMMC-7721 [23],3.8 µM
same,IC50,L1210 [24],3.8 µM
same,IC50,HL-60 [25],3.8 µM
same,IC50,Hep 3B2 [20],3.8 µM
same,IC50,CAPAN-1 [26],3.8 µM
CCn1cc(C(=O)O)c(=O)c2cnc(N3CCN(C(=O)CCSc4nnnn4-c4ccc(F)c(F)c4F)CC3)nc21,GI50,SiHa,0.06 µM
same,GI50,PANC-1 [8],0.06 µM
